Experimental data reported in PMC5224920, “Assessing the mechanism and therapeutic potential of modulators of the human Mediator complex-associated protein kinases” (eLife, 2016).

System: 12 single or co-culture in vitro tissue models of primary cells
Experiment: Culture/co-culture cell model panel, extracellular biomarkers (DiscoveRx); on CCL2/MCP-1: reference of the scale not given here; on CXCL8/IL-8: reference of the scale not given here; on CXCL9/MIG: reference of the scale not given here; on M-CSF: reference of the scale not given here; on SRB: reference of the scale not given here
Assay type: cell-based, human
[1] = /HDFNo unstimulated fibroblasts, 1.00E4 nM
[2] = /HDFNo unstimulated fibroblasts, 1.11E3 nM
[3] = /HDFNo unstimulated fibroblasts, 1.23E2 nM
[4] = /HDFNo unstimulated fibroblasts, 1.37E1 nM
[5] = /HDFNo unstimulated fibroblasts, 3.33E3 nM
[6] = /HDFNo unstimulated fibroblasts, 3.70E2 nM
[7] = /HDFNo unstimulated fibroblasts, 4.12E1 nM
[8] = /HDFNo unstimulated fibroblasts, 4.57E0 nM

Cc1n[nH]c2ncc(C(=O)N3CCC[C@H]3c3ccc(Cl)cc3)cc12 [CMPD4] gave a M-CSF (/HDF3CT, 3.70E2 nM) of -0.052, an MMP-1 (/HDF3CT, 3.70E2 nM) of -0.021 and a PAI-I (/HDF3CT, 3.70E2 nM) of -0.054. It also gave an SRB (/HDF3CT, 3.70E2 nM) of 0.014, a TIMP-2 (/HDF3CT, 3.70E2 nM) of 0.055 and a CCL2/MCP-1 (/HDF3CT, 4.12E1 nM) of -0.025. The CD54/ICAM-1 (/HDF3CT, 4.12E1 nM) was -0.054, the CD106/VCAM-1 (/HDF3CT, 4.12E1 nM) was 0.009 and the CXCL8/IL-8 (/HDF3CT, 4.12E1 nM) was -0.089. For the same compound, the CXCL9/MIG (/HDF3CT, 4.12E1 nM) was -0.015, the CXCL10/IP-10 (/HDF3CT, 4.12E1 nM) was 0.023 and the “Collagen I” value (/HDF3CT, 4.12E1 nM) was -0.036. It also gave a M-CSF (/HDF3CT, 4.12E1 nM) of -0.072, an MMP-1 (/HDF3CT, 4.12E1 nM) of 0.049 and a PAI-I (/HDF3CT, 4.12E1 nM) of -0.006. The SRB (/HDF3CT, 4.12E1 nM) was 0.013, the TIMP-2 (/HDF3CT, 4.12E1 nM) was 0.105 and the CCL2/MCP-1 (/HDF3CT, 4.57E0 nM) was 0.071. It also gave a CD54/ICAM-1 (/HDF3CT, 4.57E0 nM) of -0.030, a CD106/VCAM-1 (/HDF3CT, 4.57E0 nM) of 0.022 and a CXCL8/IL-8 (/HDF3CT, 4.57E0 nM) of -0.033. For the same compound, the CXCL9/MIG (/HDF3CT, 4.57E0 nM) was 0.019, the CXCL10/IP-10 (/HDF3CT, 4.57E0 nM) was 0.003 and the “Collagen I” value (/HDF3CT, 4.57E0 nM) was 0.009. The M-CSF (/HDF3CT, 4.57E0 nM) was -0.072, the MMP-1 (/HDF3CT, 4.57E0 nM) was 0.086 and the PAI-I (/HDF3CT, 4.57E0 nM) was 0.017. The SRB (/HDF3CT, 4.57E0 nM) was 0.023, the TIMP-2 (/HDF3CT, 4.57E0 nM) was 0.088 and the CXCL8/IL-8 [1] was 0.032. The CXCL9/MIG [1] was 0.127, the CXCL10/IP-10 [1] was 0.013 and the CXCL11/I-TAC [1] was -0.046. For the same compound, the EGFR [1] was 0.051, the M-CSF [1] was 0.0038 and the MMP-1 [1] was -0.013. It also gave a PAI-I [1] of -0.051, a Proliferation_72hr [1] of 0.179 and an SRB [1] of 0.000631. It also gave a TIMP-1 [1] of 0.019, a TIMP-2 [1] of -0.228 and a CXCL8/IL-8 [2] of -0.076. For the same compound, the CXCL9/MIG [2] was -0.081, the CXCL10/IP-10 [2] was -0.021 and the CXCL11/I-TAC [2] was -0.035. It also gave an EGFR [2] of -0.009, a M-CSF [2] of -0.068 and an MMP-1 [2] of -0.043. It also gave a PAI-I [2] of -0.052, a Proliferation_72hr [2] of 0.134 and an SRB [2] of 0.024. It also gave a TIMP-1 [2] of 0.00471, a TIMP-2 [2] of -0.013 and a CXCL8/IL-8 [3] of -0.103. The CXCL9/MIG [3] was -0.075, the CXCL10/IP-10 [3] was -0.039 and the CXCL11/I-TAC [3] was -0.045. For the same compound, the EGFR [3] was -0.011, the M-CSF [3] was 0.013 and the MMP-1 [3] was -0.032. The PAI-I [3] was 0.00163, the Proliferation_72hr [3] was 0.087 and the SRB [3] was 0.010. It also gave a TIMP-1 [3] of -0.034, a TIMP-2 [3] of 0.076 and a CXCL8/IL-8 [4] of -0.022. The CXCL9/MIG [4] was -0.044, the CXCL10/IP-10 [4] was -0.0053 and the CXCL11/I-TAC [4] was -0.037. The EGFR [4] was 0.035, the M-CSF [4] was 0.000135 and the MMP-1 [4] was -0.004. It also gave a PAI-I [4] of -0.012, a Proliferation_72hr [4] of 0.060 and an SRB [4] of 0.007. For the same compound, the TIMP-1 [4] was 0.000829, the TIMP-2 [4] was 0.075 and the CXCL8/IL-8 [5] was -0.039. It also gave a CXCL9/MIG [5] of -0.027, a CXCL10/IP-10 [5] of -0.048 and a CXCL11/I-TAC [5] of -0.031. For the same compound, the EGFR [5] was 0.046, the M-CSF [5] was -0.016 and the MMP-1 [5] was -0.033. For the same compound, the PAI-I [5] was -0.029, the Proliferation_72hr [5] was 0.157 and the SRB [5] was 0.00444. For the same compound, the TIMP-1 [5] was 0.014, the TIMP-2 [5] was -0.121 and the CXCL8/IL-8 [6] was -0.076. For the same compound, the CXCL9/MIG [6] was -0.059, the CXCL10/IP-10 [6] was -0.040 and the CXCL11/I-TAC [6] was -0.00462. It also gave an EGFR [6] of -0.018, a M-CSF [6] of -0.00531 and an MMP-1 [6] of -0.010. The PAI-I [6] was -0.018, the Proliferation_72hr [6] was 0.139 and the SRB [6] was 0.020. For the same compound, the TIMP-1 [6] was 0.003, the TIMP-2 [6] was 0.082 and the CXCL8/IL-8 [7] was -0.024. For the same compound, the CXCL9/MIG [7] was -0.065, the CXCL10/IP-10 [7] was -0.026 and the CXCL11/I-TAC [7] was -0.032. For the same compound, the EGFR [7] was 0.00663, the M-CSF [7] was -0.024 and the MMP-1 [7] was -0.026. The PAI-I [7] was -0.010, the Proliferation_72hr [7] was 0.102 and the SRB [7] was 0.013. The TIMP-1 [7] was -0.020, the TIMP-2 [7] was 0.059 and the CXCL8/IL-8 [8] was 0.034. It also gave a CXCL9/MIG [8] of 0.056, a CXCL10/IP-10 [8] of 0.00467 and a CXCL11/I-TAC [8] of -0.00186. It also gave an EGFR [8] of 0.019, a M-CSF [8] of -0.012 and an MMP-1 [8] of 0.055. For the same compound, the PAI-I [8] was 0.075, the Proliferation_72hr [8] was 0.072 and the SRB [8] was 0.043. It also gave a TIMP-1 [8] of 0.048, a TIMP-2 [8] of -0.057 and a CCL2/MCP-1 (/HDFNo, 1.00E4 nM) of 0.040. The CD54/ICAM-1 (/HDFNo, 1.00E4 nM) was 0.094, the CD106/VCAM-1 (/HDFNo, 1.00E4 nM) was 0.027 and the “Collagen I” value (/HDFNo, 1.00E4 nM) was 0.067. The “Collagen III” value (/HDFNo, 1.00E4 nM) was -0.015, the CCL2/MCP-1 (/HDFNo, 1.11E3 nM) was 0.00326 and the CD54/ICAM-1 (/HDFNo, 1.11E3 nM) was -0.048. For the same compound, the CD106/VCAM-1 (/HDFNo, 1.11E3 nM) was -0.067, the “Collagen I” value (/HDFNo, 1.11E3 nM) was -0.022 and the “Collagen III” value (/HDFNo, 1.11E3 nM) was 0.013. The CCL2/MCP-1 (/HDFNo, 1.23E2 nM) was -0.009, the CD54/ICAM-1 (/HDFNo, 1.23E2 nM) was -0.013 and the CD106/VCAM-1 (/HDFNo, 1.23E2 nM) was -0.096. For the same compound, the “Collagen I” value (/HDFNo, 1.23E2 nM) was -0.065, the “Collagen III” value (/HDFNo, 1.23E2 nM) was 0.012 and the CCL2/MCP-1 (/HDFNo, 1.37E1 nM) was -0.022. For the same compound, the CD54/ICAM-1 (/HDFNo, 1.37E1 nM) was -0.024, the CD106/VCAM-1 (/HDFNo, 1.37E1 nM) was 0.020 and the “Collagen I” value (/HDFNo, 1.37E1 nM) was -0.080. The “Collagen III” value (/HDFNo, 1.37E1 nM) was 0.026, the CCL2/MCP-1 (/HDFNo, 3.33E3 nM) was -0.021 and the CD54/ICAM-1 (/HDFNo, 3.33E3 nM) was -0.005. The CD106/VCAM-1 (/HDFNo, 3.33E3 nM) was -0.034, the “Collagen I” value (/HDFNo, 3.33E3 nM) was -0.014 and the “Collagen III” value (/HDFNo, 3.33E3 nM) was 0.025. It also gave a CCL2/MCP-1 (/HDFNo, 3.70E2 nM) of -0.005, a CD54/ICAM-1 (/HDFNo, 3.70E2 nM) of -0.029 and a CD106/VCAM-1 (/HDFNo, 3.70E2 nM) of -0.058. For the same compound, the “Collagen I” value (/HDFNo, 3.70E2 nM) was -0.055, the “Collagen III” value (/HDFNo, 3.70E2 nM) was 0.000891 and the CCL2/MCP-1 (/HDFNo, 4.12E1 nM) was 0.007. The CD54/ICAM-1 (/HDFNo, 4.12E1 nM) was -0.036, the CD106/VCAM-1 (/HDFNo, 4.12E1 nM) was -0.047 and the “Collagen I” value (/HDFNo, 4.12E1 nM) was -0.086. For the same compound, the “Collagen III” value (/HDFNo, 4.12E1 nM) was 0.030, the CCL2/MCP-1 (/HDFNo, 4.57E0 nM) was 0.025 and the CD54/ICAM-1 (/HDFNo, 4.57E0 nM) was 0.028. It also gave a CD106/VCAM-1 (/HDFNo, 4.57E0 nM) of 0.010.
